Laboratory results published in patent publication US20250059207A1, “6,6-FUSED HETEROCYCLIC COMPOUNDS AS METTL3 INHIBITORS” (858 Therapeutics, Inc., priority 2021, published 2025).
pIC50: −log10 of the molar value.

Tested on: MOLM-13 cells
Test: Viability assay in MOLM-13 cells (CellTiter-Glo 2.0)
Assay type: cell-based, human
Conditions: Homo sapiens, MOLM-13, 72 h, read-out: MOLM-13 IC50 (cell viability)
Procedure: Effects of test compounds on the proliferation and viability of human AML cells was evaluated using the MOLM-13 cell line (AddexBio Technologies cat. no. C0003003). […] Test compounds or controls (Bortezomib or DMSO) diluted in 2% DMSO/media were added to each well for final concentrations of 0.2% DMSO and 0.1-1 μM Bortezomib. The cells were incubated for 72 hours at 37° C. and 5% CO2. At the end of the 72 hour incubation, plates were removed from the incubator, cooled to room temperature and equal volume of CellTiter-Glo 2.0 (Promega) added to each well. After mixing and incubating the plate at room temperature for 10 minutes the luminescence was read using a plate reader. […] Concentration-response-curves and IC50 values were generated using Collaborative Drug Discovery software.

Structure (SMILES)	pIC50
Cc1ccc2nc(Cn3ccc4c(N5CCC5)cncc4c3=O)cn2c1 [Compound 9, 5-(azetidin-1-yl)-2-((6-methylimidazo[1,2-a]pyridin-2-yl)methyl)-2,7-naphthyridin-1(2H)-one]	< 5.00
O=c1c2cnccc2ccn1Cc1cn2cc(CNCc3ccccc3)ccc2n1 [Compound 69, 2-((6-((benzylamino)methyl)imidazo[1,2-a]pyridin-2-yl)methyl)-2,7-naphthyridin-1(2H)-one]	< 5.00
O=c1c2cncc(-c3ccccc3)c2ccn1Cc1cn2cc(CNC3(c4ccccc4)CC3)ccc2n1 [Compound 78, 5-phenyl-2-((6-(((1-phenylcyclopropyl)amino)methyl)imidazo[1,2-a]pyridin-2-yl)methyl)-2,7-naphthyridin-1(2H)-one]	5.00 to 6.00

Same assay, conditions: MOLM-13 human AML cells, 72 hours, CellTiter-Glo 2.0; read-out: MOLM-13 IC50 (cell viability)

pIC50	Structure (SMILES)
< 5.00	CCOc1cncc2c(=O)n(Cc3cn4cc(C)ccc4n3)ccc12 [Compound 3, 5-ethoxy-2-((6-methylimidazo[1,2-a]pyridin-2-yl)methyl)-2,7-naphthyridin-1(2H)-one]
< 5.00	Cc1ccc2nc(Cn3ccc4c(N5CC(c6ccccc6)C5)cncc4c3=O)cn2c1 [Compound 7, 2-((6-methylimidazo[1,2-a]pyridin-2-yl)methyl)-5-(3-phenylazetidin-1-yl) 2,7-naphthyridin-1(2H)-one]
< 5.00	Cc1ccc2nc(Cn3ccc4c(N5CCCCC5)cncc4c3=O)cn2c1 [Compound 10, 2-((6-methylimidazo[1,2-a]pyridin-2-yl)methyl)-5-(piperidin-1-yl)-2,7-naphthyridin-1(2H)-one]
< 5.00	Cc1ccc2nc(Cn3ccc4c(C5CC5)cncc4c3=O)cn2c1 [Compound 11, 5-cyclopropyl-2-((6-methylimidazo[1,2-a]pyridin-2-yl)methyl)-2,7-naphthyridin-1(2H)-one]
< 5.00	Cc1ccc2nc(Cn3ccc4c(-c5cc[nH]n5)cncc4c3=O)cn2c1 [Compound 15, 2-((6-methylimidazo[1,2-a]pyridin-2-yl)methyl)-5-(1H-pyrazol-3-yl)-2,7-naphthyridin-1(2H)-one]
< 5.00	Cc1ccc2nc(Cn3ccc4c(-c5cccnc5)cncc4c3=O)cn2c1 [Compound 17, 2-((6-methylimidazo[1,2-a]pyridin-2-yl)methyl)-5-(pyridin-3-yl)-2,7-naphthyridin-1(2H)-one]
< 5.00	CNC(=O)c1ccc(-c2cncc3c(=O)n(Cc4cn5cc(C)ccc5n4)ccc23)cc1 [Compound 26, N-methyl-4-(7-((6-methylimidazo[1,2-a]pyridin-2-yl)methyl)-8-oxo-7,8-dihydro-2,7-naphthyridin-4-yl)benzamide]
< 5.00	Cc1ccc2nc(Cn3ccc4c(-c5ccccc5C#N)cncc4c3=O)cn2c1 [Compound 28, 2-(7-((6-methylimidazo[1,2-a]pyridin-2-yl)methyl)-8-oxo-7,8-dihydro-2,7-naphthyridin-4-yl)benzonitrile]
< 5.00	Cc1ccc2nc(Cn3ccc4c(-c5c(F)cccc5F)cncc4c3=O)cn2c1 [Compound 29, 5-(2,6-difluorophenyl)-2-((6-methylimidazo[1,2-a]pyridin-2-yl)methyl)-2,7-naphthyridin-1(2H)-one]
< 5.00	Cc1ccc2nc(Cn3ccc4c(-c5c(C)cccc5F)cncc4c3=O)cn2c1 [Compound 30, 5-(2-fluoro-6-methylphenyl)-2-((6-methylimidazo[1,2-a]pyridin-2-yl)methyl)-2,7-naphthyridin-1(2H)-one]
< 5.00	CC(=O)Nc1ccc(-c2cncc3c(=O)n(Cc4cn5cc(C)ccc5n4)ccc23)cn1 [Compound 38, N-(5-(7-((6-methylimidazo[1,2-a]pyridin-2-yl)methyl)-8-oxo-7,8-dihydro-2,7-naphthyridin-4-yl)pyridin-2-yl)acetamide]
< 5.00	Cc1ccc2nc(Cn3ccc4c(C#CC5CC5)cncc4c3=O)cn2c1 [Compound 46, 5-(cyclopropylethynyl)-2-((6-methylimidazo[1,2-a]pyridin-2-yl)methyl)-2,7-naphthyridin-1(2H)-one]
5.00 to 6.00	Cc1ccc2nc(Cn3cc(C)c4ccncc4c3=O)cn2c1 [Compound 49, 4-methyl-2-((6-methylimidazo[1,2-a]pyridin-2-yl)methyl)-2,7-naphthyridin-1(2H)-one]
< 5.00	O=c1c2cnccc2ccn1Cc1cn2cc(CNCC3CCCCC3)ccc2n1 [Compound 71, 2-((6-(((cyclohexylmethyl)amino)methyl)imidazo[1,2-a]pyridin-2-yl)methyl)-2,7-naphthyridin-1(2H)-one]
5.00 to 6.00	O=c1c2cncc(-c3ccccc3)c2ccn1Cc1cn2cc(CNCc3ccccc3)ccc2n1 [Compound 72, 2-((6-((benzylamino)methyl)imidazo[1,2-a]pyridin-2-yl)methyl)-5-phenyl-2,7-naphthyridin-1(2H)-one]
5.00 to 6.00	CC(C)(C)CNCc1ccc2nc(Cn3ccc4c(-c5ccccc5)cncc4c3=O)cn2c1 [Compound 73, 2-((6-((neopentylamino)methyl)imidazo[1,2-a]pyridin-2-yl)methyl)-5-phenyl-2,7-naphthyridin-1(2H)-one]
< 5.00	O=c1c2cncc(-c3ccccc3)c2ccn1Cc1cn2cc(CNCC3(O)CCC3)ccc2n1 [Compound 74, 2-((6-((((1-hydroxycyclobutyl)methyl)amino)methyl)imidazo[1,2-a]pyridin-2-yl)methyl)-5-phenyl-2,7-naphthyridin-1(2H)-one]
< 5.00	O=c1c2cncc(-c3ccccc3)c2ccn1Cc1cn2cc(CNCC3(F)CCC3)ccc2n1 [Compound 75, 2-((6-((((1-fluorocyclobutyl)methyl)amino)methyl)imidazo[1,2-a]pyridin-2-yl)methyl)-5-phenyl-2,7-naphthyridin-1(2H)-one]
5.00 to 6.00	O=c1c2cncc(-c3ccccc3)c2ccn1Cc1cn2cc(CNCC3CCCC3)ccc2n1 [Compound 76, 2-((6-(((cyclopentylmethyl)amino)methyl)imidazo[1,2-a]pyridin-2-yl)methyl)-5-phenyl-2,7-naphthyridin-1(2H)-one]
5.00 to 6.00	O=c1c2cncc(-c3ccccc3)c2ccn1Cc1cn2cc(CNCC3CCCCC3)ccc2n1 [Compound 77, 2-((6-(((cyclohexylmethyl)amino)methyl)imidazo[1,2-a]pyridin-2-yl)methyl)-5-phenyl-2,7-naphthyridin-1(2H)-one]
5.00 to 6.00	O=c1c2cncc(-c3ccccc3)c2ccn1Cc1cn2cc(CNCC3CC(F)C3)ccc2n1 (centres unmarked) [Compound 79, 2-((6-((((3-fluorocyclobutyl)methyl)amino)methyl)imidazo[1,2-a]pyridin-2-yl)methyl)-5-phenyl-2,7-naphthyridin-1(2H)-one]
5.00 to 6.00	O=c1c2cncc(-c3ccccc3)c2ccn1Cc1cn2cc(CNC3(c4ccccc4)CCC3)ccc2n1 [Compound 80, 5-phenyl-2-((6-(((1-phenylcyclobutyl)amino)methyl)imidazo[1,2-a]pyridin-2-yl)methyl)-2,7-naphthyridin-1(2H)-one]
5.00 to 6.00	CC(C)(NCc1ccc2nc(Cn3ccc4c(-c5ccccc5)cncc4c3=O)cn2c1)c1ccccc1 [Compound 81, 5-phenyl-2-((6-(((2-phenylpropan-2-yl)amino)methyl)imidazo[1,2-a]pyridin-2-yl)methyl)-2,7-naphthyridin-1(2H)-one]
